EPA's ToxRefDB 2

Assays:
dog [1] = details: Sub-acute repeat dose toxicity; beagle; Oral; Gavage/Intubation; dose end: 5 day; group: systemic; systemic / in life observation / clinical signs / abnormal feces + systemic / in life observation / clinical signs / emesis
rabbit = details: Sub-acute repeat dose toxicity; new zealand white; Oral; Gavage/Intubation; dose end: 5 day; group: systemic; systemic / in life observation / body weight / body weight + systemic / in life observation / clinical signs / altered breathing rate + …
dog [2] = details: Subchronic oral toxicity in nonrodent, beagle, Gavage/Intubation, dose end: 90 day, group: systemic
dog [3] = details: Sub-acute repeat dose toxicity; beagle; Oral; Gavage/Intubation; dose end: 29 day; group: systemic; systemic / clinical chemistry / hepatic mixed function oxidase (mfo) assay / hepatic mixed function oxidase (mfo) assay + systemic / in life…
rat [4] = details: Sub-acute repeat dose toxicity; sprague dawley; Oral; Gavage/Intubation; dose end: 9 day; group: systemic; systemic / in life observation / body weight / body weight gain + systemic / in life observation / food consumption / food consumption
rat [5] = details: Sub-acute repeat dose toxicity, sprague dawley, Oral, Gavage/Intubation, dose end: 29 day, group: systemic
dog [6] = details: Sub-acute repeat dose toxicity, beagle, Oral, Gavage/Intubation, dose end: 5 day, group: systemic
[7] = systemic / clinical chemistry / cholesterol / cholesterol + systemic / organ weight / liver / absolute + systemic / pathology microscopic / …
[8] = systemic / in life observation / clinical signs / abnormal feces + systemic / organ weight / liver / absolute + systemic / pathology …
[9] = systemic / clinical chemistry / 5' nucleotidase / 5' nucleotidase + systemic / clinical chemistry / albumin / albumin + systemic / clinical …
[10] = systemic / in life observation / clinical signs / abnormal feces
[11] = systemic / in life observation / clinical signs / abnormal feces + systemic / in life observation / clinical signs / emesis

For NC(=O)N(O)[C@@H]1C=C[C@H](Oc2cccc(Oc3ccc(F)cc3)c2)C1, the LEL (dog [1]) was 250 mg/kg/day, the LOAEL (dog [1]) was greater than 500 mg/kg/day and the NEL (dog [1]) was less than 250 mg/kg/day. For the same molecule, the NOAEL (dog [1]) was no less than 500 mg/kg/day, the LEL (rabbit) was 400 mg/kg/day and the LOAEL (rabbit) was greater than 400 mg/kg/day. For the same molecule, the NEL (rabbit) was 40 mg/kg/day, the NOAEL (rabbit) was no less than 400 mg/kg/day and the NEL (dog [2]; [7]) was 5 mg/kg/day. It also gave an LOAEL (dog [2]; [8]) greater than 125 mg/kg/day, an NOAEL (dog [2]; [8]) of no less than 125 mg/kg/day and an LEL (dog [2]; systemic / organ weight / liver / absolute) of 25 mg/kg/day. The LEL (dog [3]) was 125 mg/kg/day, the LOAEL (dog [3]) was greater than 125 mg/kg/day and the NEL (dog [3]) was 25 mg/kg/day. It also gave an NOAEL (dog [3]) of no less than 125 mg/kg/day, an LEL (rat [4]) of 400 mg/kg/day and an LOAEL (rat [4]) greater than 400 mg/kg/day. For the same molecule, the NEL (rat [4]) was 200 mg/kg/day, the NOAEL (rat [4]) was no less than 400 mg/kg/day and the LOAEL (rat [5]; [9]) was greater than 400 mg/kg/day. It also gave an NEL (rat [5]; [9]) of 10 mg/kg/day, an NOAEL (rat [5]; [9]) of no less than 400 mg/kg/day and an LEL (rat [5]; [7]) of 40 mg/kg/day. The LEL (dog [6]; [10]) was 5 mg/kg/day, the NEL (dog [6]; [10]) was less than 5 mg/kg/day and the LOAEL (dog [6]; [11]) was greater than 125 mg/kg/day. It also gave an NOAEL (dog [6]; [11]) of no less than 125 mg/kg/day.
